{"source": "patent US20120122727A1", "about": "“IN VITRO METHOD FOR PREDICTING WHETHER A COMPOUND IS GENOTOXIC IN VIVO” (priority 2009, published 2012)", "tested_on": "primary mouse hepatocytes", "test": "Gene expression (Affymetrix Mouse Genome 430 2.0) in primary mouse hepatocytes, true vs false GTX, 24 h and 48 h", "conditions": "48 h; log2, corrected for vehicle control", "data": [{"smiles": "CN(C)N=O", "note": "[DMN, Dimethylnitrosamine]", "values": [{"measurement": "Gene expression AF297615 average", "result": 3.153}, {"measurement": "Gene expression AF335325 average", "result": 1.6857}, {"measurement": "Gene expression AI594683 average", "result": 3.7761}, {"measurement": "Gene expression AI747296 average", "result": "−0.4333"}, {"measurement": "Gene expression AK005731 average", "result": 4.617}, {"measurement": "Gene expression AK007854 average", "result": 0.8396}, {"measurement": "Gene expression AK010447 average", "result": "−0.8634"}, {"measurement": "Gene expression AK010738 average", "result": 1.343}, {"measurement": "Gene expression AK014608 average", "result": 1.391}, {"measurement": "Gene expression AK017734 average", "result": 1.0611}, {"measurement": "Gene expression AK018383 average", "result": 0.8246}, {"measurement": "Gene expression AK019979 average", "result": "−1.11"}, {"measurement": "Gene expression AV095209 average", "result": "−0.454"}, {"measurement": "Gene expression AV141095 average", "result": "−0.8663"}, {"measurement": "Gene expression AV173869 average", "result": "−1.272"}, {"measurement": "Gene expression AV216768 average", "result": "−0.2641"}, {"measurement": "Gene expression AV219418 average", "result": 4.5473}, {"measurement": "Gene expression AV221299 average", "result": "−1.5693"}, {"measurement": "Gene expression AV246296 average", "result": 0.9572}, {"measurement": "Gene expression AV251625 average", "result": 1.246}, {"measurement": "Gene expression AV254764 average", "result": 1.133}, {"measurement": "Gene expression AV327248 average", "result": 4.023}, {"measurement": "Gene expression BB009155 average", "result": 2.343}, {"measurement": "Gene expression BB027848 average", "result": 1.191}, {"measurement": "Gene expression BB043558 average", "result": 2.187}, {"measurement": "Gene expression BB046347 average", "result": 0.7743}, {"measurement": "Gene expression BB140436 average", "result": "−1.281"}, {"measurement": "Gene expression BB204486 average", "result": "−0.3108"}, {"measurement": "Gene expression BB223872 average", "result": 1.694}, {"measurement": "Gene expression BB246912 average", "result": "−0.9806"}, {"measurement": "Gene expression BB275142 average", "result": 1.162}, {"measurement": "Gene expression BB458460 average", "result": "−0.6934"}, {"measurement": "Gene expression BB463610 average", "result": 1.546}, {"measurement": "Gene expression BB730977 average", "result": "−0.656"}, {"measurement": "Gene expression BB743970 average", "result": 3.154}, {"measurement": "Gene expression BB770528 average", "result": 1.709}, {"measurement": "Gene expression BB781615 average", "result": 1.487}, {"measurement": "Gene expression BC003284 average", "result": 1.379}, {"measurement": "Gene expression BC004827 average", "result": "−1.0689"}, {"measurement": "Gene expression BC005552 average", "result": "−0.5235"}, {"measurement": "Gene expression BC006713 average", "result": 1.668}, {"measurement": "Gene expression BC010318 average", "result": "−1.167"}, {"measurement": "Gene expression BC012247 average", "result": 1.67}, {"measurement": "Gene expression BC012955 average", "result": "−1.97"}, {"measurement": "Gene expression BC013893 average", "result": 0.5487}, {"measurement": "Gene expression BC017615 average", "result": "−2.7334"}, {"measurement": "Gene expression BC019379 average", "result": "−0.3602"}, {"measurement": "Gene expression BC019882 average", "result": 1.494}, {"measurement": "Gene expression BC021352 average", "result": 3.512}, {"measurement": "Gene expression BC022148 average", "result": 1.8449}, {"measurement": "Gene expression BC025169 average", "result": "−1.296"}, {"measurement": "Gene expression BC026131 average", "result": "−0.7571"}, {"measurement": "Gene expression BC027026 average", "result": 2.571}, {"measurement": "Gene expression BC027121 average", "result": 2.075}, {"measurement": "Gene expression BC027185 average", "result": 1.462}, {"measurement": "Gene expression BE956581 average", "result": 3.033}, {"measurement": "Gene expression BF719766 average", "result": 1.2016}, {"measurement": "Gene expression BG065754 average", "result": 0.9953}, {"measurement": "Gene expression BG066491 average", "result": "−0.9757"}, {"measurement": "Gene expression BG076151 average", "result": 1.205}, {"measurement": "Gene expression BG076333 average", "result": "−0.7995"}, {"measurement": "Gene expression BG797099 average", "result": 1.704}, {"measurement": "Gene expression BG967046 average", "result": 1.1973}, {"measurement": "Gene expression BI651416 average", "result": 1.8588}, {"measurement": "Gene expression BI966443 average", "result": 3.295}, {"measurement": "Gene expression BM198879 average", "result": 1.096}, {"measurement": "Gene expression BM200015 average", "result": 1.16}, {"measurement": "Gene expression BM230508 average", "result": 1.54}, {"measurement": "Gene expression BM936480 average", "result": 0.7781}, {"measurement": "Gene expression BQ174991 average", "result": "−0.28"}, {"measurement": "Gene expression L21027 average", "result": "−0.4472"}, {"measurement": "Gene expression NM_007556 average", "result": "−1.29"}, {"measurement": "Gene expression NM_007980 average", "result": 0.3252}, {"measurement": "Gene expression NM_007987 average", "result": 1.665}, {"measurement": "Gene expression NM_008522 average", "result": 4.993}, {"measurement": "Gene expression NM_008935 average", "result": "−1.382"}, {"measurement": "Gene expression NM_009897 average", "result": 3.619}, {"measurement": "Gene expression NM_011075 average", "result": 2.401}, {"measurement": "Gene expression NM_011176 average", "result": 1.597}, {"measurement": "Gene expression NM_011316 average", "result": 2.0898}, {"measurement": "Gene expression NM_012006 average", "result": 1.6671}, {"measurement": "Gene expression NM_013642 average", "result": 0.3461}, {"measurement": "Gene expression NM_013738 average", "result": 1.562}, {"measurement": "Gene expression NM_013929 average", "result": 1.891}, {"measurement": "Gene expression NM_018881 average", "result": 0.9481}, {"measurement": "Gene expression NM_019738 average", "result": "−2.9169"}, {"measurement": "Gene expression NM_030697 average", "result": 2.5583}, {"measurement": "Gene expression NM_053122 average", "result": "−2.3248"}, {"measurement": "Gene expression NM_134147 average", "result": "−1.579"}, {"measurement": "Gene expression NM_134188 average", "result": "−0.6378"}, {"measurement": "Gene expression X62701 average", "result": 0.07157}]}]}
